The values below come from PubChem BioAssay AID179 (DTP/NCI, 2004).

Broadly, the EC50 is the concentration giving half of the maximal effect. Usually IC50 stands for the concentration that inhibits the measured activity by half. Read a high IC50 as weaker potency in that assay.

Each structure is given as a SMILES string. “And” between values parts separate entries of the source, which are not always exact repeats. Equal values may be shown once. The source made the active and inactive calls.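 Rule for the calls: active = compounds giving half or more protection of infected cells from virus-caused growth loss, again on retest; inactive = the rest.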

This experiment concerns CEM cells HIV-1 protection, formazan growth assay. The experiment can be described thus: NCI AIDS Antiviral Assay. The note with it: for IC50: measured here: growth of uninfected CEM cells. The procedure, abridged:
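Steps: treat uninfected and HIV-1-infected human CEM cells at five drug levels; quantify growth by soluble formazan; retest any compound reaching 50% protection; classify actives from the retest.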

For the molecule `Cc1cc(Cc2c(F)c(F)c(Cc3cc(C)no3)c(F)c2F)on1`, the EC50 was over 100 µM and the IC50 is over 100 µM.
As to `CCc1ccccc1NC(=O)CCc1nc(=S)[nH][nH]1`, the EC50 is over 912 µM and the IC50 was over 912 µM.
As for `CCCCCCCCCCCCC/C=C/[C@@H](OC(=O)c1ccccc1)C(CO)N=[N+]=[N-]` (stereo partly specified), the outcome was inactive.
With `COc1cccc2c(=O)oc(-c3ccccc3C)nc12`, the EC50 was over 200 µM and the IC50 turned out to be 45.7 µM.
On to `O=C(OC[C@H]1OCC(=O)[C@@]2(OC(=O)c3ccccc3)[C@@H]1[C@H]1C=C[C@@H]2C1)c1ccccc1`, for which the result was inactive.
With `NC(CSSCC(N)=NC1CCCCC1)=NC1CCCCC1`, the EC50 was over 200 µM and the IC50 was determined as 95.5 µM.
Consider `CCOC(=O)/C=C(/C=C\COC1CCCCO1)c1ccccc1` (stereo unspecified), for which the EC50 is over 74.1 µM and the 50% inhibitory concentration (IC50) amounted to 36.3 µM.
In the case of `C=C1C(=O)OC2/C=C(\COC(C)=O)CCC(OC(C)=O)C3=CC(OC3=O)C12` (stereo unspecified), the EC50 is over 36.3 µM and the IC50 worked out at 7.24 µM.
For the molecule `C[C@]12CC[C@H](O)CC1=CC[C@@H]1C2CC[C@]2(C)NC(=O)C(C#N)CC12` (stereo partly specified), the result was inactive.
Still for that read-out and setting: under `O=C(N/C(=C\c1cc(Cl)ccc1Cl)c1nc2ccccc2[nH]1)c1ccccc1` stands “inactive”.
Take `CC1(C)N=C(C(N)=O)c2ncn(-c3ccccc3)c2N1`: the EC50 was over 200 µM and the IC50 was over 200 µM.
As to `COc1ccc(C2C3=C(N=C4SC(C(C)=O)=C(C)N42)c2ccccc2CC3)cc1` (stereo unspecified), the EC50 is over 200 µM and the IC50 was determined as 17.4 µM.
Consider `c1cnc2c(c1)-n1cccc1C1(CCSCC1)NN2`, for which the EC50 was over 60.3 µM and the IC50 is over 60.3 µM.
As for `Cc1cccc(C)c1NC(=O)C(=O)C(C#N)c1ccccc1Cl` (stereo unspecified), the EC50 is over 759 µM and the IC50 is over 759 µM.
With `Cc1ccc(S(=O)(=O)N/N=C(\c2nc3ccc(Cl)cc3[nH]c2=O)C(O)c2cccc([N+](=O)[O-])c2)cc1` (stereo unspecified), the EC50 was over 468 µM and the IC50 is 162 µM.
As to `O=C1C=CC=C/C1=C1/SC(c2ccccc2)=C(O)N1c1ccccc1`, the outcome was inactive.
As for `O=C1CCC2(c3ccc(F)cc3)Nc3ncncc3N12` (stereo unspecified), the EC50 was over 347 µM and the IC50 is over 347 µM.
As for `CSc1nn(C)cc2ncnc1-2`, the EC50 was over 200 µM and the IC50 is over 200 µM.
Regarding `CCOC(=O)/C(=C\n1c(=O)[nH]c(=O)[nH]c1=S)C(=O)c1ccccc1`, the result was inactive.
As for `CCOC(=O)c1c(N2CCCC2)nsc1Nc1ccccc1`, the EC50 was over 200 µM and the IC50 was 145 µM.
With `CC(O)C1=CCC2c3[nH]c4ccccc4c3CCN2C1` (stereo unspecified), the EC50 was over 23.4 µM and the IC50 is over 23.4 µM.
Turning to `O=C(O)c1ccccc1C(=O)OC1CC2CC1C1OCC21` (stereo unspecified), the EC50 is over 309 µM and the IC50 is over 309 µM.
For `O=C(O)[C@H](CCC[C@H]1C(=O)O[C@H](c2ccccc2)[C@H](c2ccccc2)N1C(=O)OCc1ccccc1)N[C@@H](c1ccccc1)[C@H](O)c1ccccc1`, the EC50 is over 89.1 µM and the IC50 came to 77.6 µM.
As for `Cc1ccc(-c2nc(-c3cnccn3)n(C3OC(CO)C(O)C(O)C3O)n2)cc1` (stereo unspecified), the EC50 was over 200 µM and the IC50 is over 200 µM.
Regarding `CC1C(=O)C(C)C(c2ccco2)N(N=O)C1c1ccco1` (stereo unspecified), the EC50 is over 234 µM and the IC50 is 132 µM.
The matching figures for `COc1cccc(NC(=S)Nn2c(C)nc3ccccc3c2=O)c1`: over 105 µM and over 105 µM.
As to `COCN1CCC2N(COC)CCC3N(COC)CCC1N23` (stereo unspecified), the result was inactive.
On to `CC(C)(C)C1=C(Br)C(Br)(C(C)(C)C)OP1(=O)c1ccccc1` (stereo unspecified), for which the EC50 was over 200 µM and the IC50 is over 200 µM.
As to `O=C(Cn1c(=O)sc2ccc(Cl)cc21)N1CCN(CCO)CC1`, the EC50 is over 200 µM and the IC50 is over 200 µM.
For `CC(=O)N(CCc1ccccc1)C(C#N)c1ccc(OCCCCCCCCCCOc2ccc(C(C#N)N(CCc3ccccc3)C(C)=O)cc2)cc1` (stereo unspecified), the EC50 is over 100 µM and the 50% inhibitory concentration (IC50) is over 100 µM.
As for `CCN(CC)C(=O)CCN1CC1`, the EC50 is over 200 µM and the IC50 is over 200 µM.
Consider `CCCCCCCCSc1ncnc2[nH]ncc12`, for which the EC50 was over 79.4 µM and the IC50 turned out to be 8.51 µM.
The matching figures for `COc1cc(/C=C/c2nc(N)nnc2C)cc(OC)c1OC`: over 200 µM and 2.82 µM.
For the molecule `O=C1NC2(CCCC2)C(=O)C12CCCC2`, the result was inactive.
Turning to `CC(=O)OC(=C(C#N)C#N)c1nccnc1C(=O)O`, the EC50 is over 200 µM and the 50% inhibitory concentration (IC50) is over 200 µM.
`C=C/C(C)=C/[C@H](C)C(=O)C[C@H](O)CC1CC(=O)NC(=O)C1`: the result was inactive.
Turning to `N#Cc1ccccc1NC(=O)C(=O)c1c(O)c2ccccc2oc1=O`, the EC50 is over 741 µM and the IC50 is over 741 µM.
For `N#Cc1c(-c2ccc(Cl)cc2)c(C#N)c(=O)n(NS(=O)(=O)c2ccccc2)c1-c1ccccc1`, the EC50 was over 151 µM and the IC50 came out at 32.4 µM.
Consider `CC(C)c1cc(C(C)C)c(B(c2ccccc2)c2ccccc2)c(C(C)C)c1Br`, for which the EC50 was over 200 µM and the IC50 is over 200 µM.
For the molecule `CC1(C(=O)Nc2ccccc2)CC2(C)CC(C)(C1)C(O)NC2=O` (stereo unspecified), the result was inactive.
On to `CC1=Nn2c(nnc2-c2cccc(N)c2)NC(C)(C)C1`, for which the EC50 was over 468 µM and the IC50 is over 468 µM.
On to `COC(=O)Nc1nc2ccccc2c(=O)[nH]1`, for which the EC50 is over 200 µM and the IC50 is over 200 µM.
For `O=C(O)c1ccc(-c2ccc(-c3cc(=S)sc(=O)[nH]3)cc2)cc1`, the EC50 is over 263 µM and the IC50 is 89.1 µM.
The matching figures for `O=C1N(Cl)C2(c3ccccc3)N(Cl)C(=O)N(Cl)C2(c2ccccc2)N1Cl` (stereo unspecified): over 200 µM and over 200 µM.
In the case of `CC(CC12C=CC3(OO1)C(C)(C)CCCC3(C)O2)OC(=O)c1ccccc1` (stereo unspecified), the EC50 is over 200 µM; the IC50 was 7.08 µM and 11.2 µM.
Turning to `Cc1ccccc1C1(Br)C(=O)c2ccccc2C1=O`, the EC50 was over 200 µM and the IC50 came out at 33.9 µM.
The matching figures for `CC(C)(SSC(C)(C)C(N)C(=O)O)C(N)C(=O)O` (stereo unspecified): over 427 µM and over 427 µM.
In the case of `O=C1c2ccccc2C2(O)Nc3c(ccc4ccccc34)C12O` (stereo unspecified), the EC50 was over 832 µM and the IC50 came to 45.7 µM.
With `COC(=O)c1cc(=O)[nH]c2c1c(=O)n(C)c(=O)n2C`, the EC50 is over 200 µM and the IC50 was over 200 µM.
Consider `O=C(N/N=C/c1ccco1)c1ccc(OCc2nc3ccccc3[nH]2)cc1`, for which the EC50 is over 200 µM and the IC50 turned out to be 83.2 µM.
Consider `COc1ccc2c(C)cc(N/N=C(\C)C=O)nc2c1`, for which the EC50 is over 200 µM and the IC50 came out at 4.07 µM.
The matching figures for `CNS(=O)(=O)NN(C)S(=O)(=O)c1ccc(Br)cc1`: over 132 µM and over 132 µM.
On to `O=C1CN(c2cccc(C(F)(F)F)c2)C(=O)CN1CCN1CC(=O)N(c2cccc(C(F)(F)F)c2)CC1=O`, for which the EC50 was over 200 µM and the IC50 is over 200 µM.
As to `CC1(C)N=C(N)N=C(N)N1c1cccc(N)c1.[Sn]`, the result was inactive.
As for `CC1(C)CC(C2=NCCO2)CC(C)(C)N1`, the EC50 is over 200 µM and the IC50 is over 200 µM.
As to `CC1(C)COC(c2ccccc2-c2ccccc2)=N1`, the EC50 was over 200 µM and the IC50 amounted to 132 µM.
The matching figures for `COc1ccc(NC(=O)CCc2cc(-c3ccc(O)c(OC)c3)nc(NC#N)n2)cc1`: over 224 µM and over 224 µM.
Regarding `Cc1cccc2c(=O)c3cccc([C@@H](C)C(=O)O)c3oc12`, the EC50 is over 200 µM and the IC50 stood at 67.6 µM.
The matching figures for `Cn1nc(-c2ccccc2)c(C(=O)/C=C/c2ccccc2)c(N2CCOCC2)c1=O`: over 79.4 µM and over 79.4 µM.
The matching figures for `CC1OC(OC2C(CO)OC(O[C@H]3CC[C@@]4(C)C(=CC[C@H]5[C@@H]6C[C@@H]7O[C@](O)(CC[C@@H](C)COC8OC(CO)C(O)C(O)C8O)[C@@H](C)[C@@H]7[C@@]6(C)CC[C@@H]54)C3)C(OC3OC(C)C(O)C(O)C3O)C2O)C(O)C(O)C1O` (stereo partly specified): over 200 µM and 1.86 µM.
As to `O=C1/C(=C/c2ccc(Cl)c(Cl)c2)CCC/C1=C\c1ccc(Cl)c(Cl)c1`, the EC50 was over 50.1 µM and the IC50 came to 2.95 µM.
On the same counts, the results for `Brc1c2nc3ccccc3nc2n2ccc3ccccc3c12` are over 28.8 µM and over 28.8 µM.
Take `O=C(C=Nc1ccccc1C(=O)[O-])c1cccs1.O=C(C=Nc1ccccc1C(=O)[O-])c1cccs1.[Co+2]`: the outcome was inactive.
Regarding `CC1=NN2C(=O)CSC2=NC(C)(C)C1`, the EC50 is 263 µM and the IC50 is 1170 µM.
The matching figures for `CC(C)CCC[C@@H](C)[C@H]1CC[C@H]2[C@@H]3CCC4C[C@@H](CCC=C(c5cc(Cl)c(OCc6ccccc6C(=O)O)c(C(=O)O)c5)c5cc(Cl)c(OCc6ccccc6C(=O)O)c(C(=O)O)c5)CC[C@]4(C)[C@H]3CC[C@]12C` (stereo partly specified): 44.7 µM and over 200 µM.
For the molecule `N#CCCC1(CCC#N)CCc2ccccc2C1=O`, the EC50 is over 200 µM and the IC50 was over 200 µM.
As to `COc1cccc2c1C(=O)c1c(O)c3c(c(O)c1C2=O)C[C@@](O)(C(C)=O)C[C@@H]3OC1CC(N(C)C)C(O)C(C)O1` (stereo partly specified), the result was inactive.
On to `CN1c2ccccc2C(=O)NC12CCNCC2`, for which the EC50 was over 200 µM and the IC50 was over 200 µM.
Take `CSc1nc2c(c(=O)[nH]1)N=C(c1ccc(Cl)cc1)CC(c1ccccc1)N2` (stereo unspecified): the EC50 was over 200 µM and the IC50 was determined as 33.1 µM.
The matching figures for `Cc1nnnn1[C@H]1C(C#N)CC2[C@@H]3CCC4=Cc5nnnn5CC[C@]4(C)C3CC[C@@]21C` (stereo partly specified): over 85.1 µM and over 85.1 µM.
With `CCCCOC(=O)C1OC12CCCCC2` (stereo unspecified), the EC50 is over 200 µM and the IC50 is 151 µM.
Turning to `c1ccc(CNCCCNCCCCNCCCNCc2ccccc2)cc1`, the EC50 was over 15.1 µM and the IC50 amounted to 1.62 µM.
